The results in this text go back to ChEMBL document CHEMBL2429759, “Anti-tumor activity evaluation of novel chrysin-organogermanium(IV) complex in MCF-7 cells” (Bioorg Med Chem Lett, 2013).

The nature of data set [1]: Growth inhibition of human MCF10A cells at 30 ug/ml by MTT assay. In kind it is cell-based, MCF-10A. Conditions: MCF10A cells, read-out: GI. In general terms: Tetrazolium dyes change colour on reduction, which living cells bring about.
The nature of data set [2]: Growth inhibition of human MCF10A cells at 20 ug/ml by MTT assay. The settings on record: MCF10A cells, read-out: GI. In kind it is cell-based, MCF-10A.
Data set [3] in a line: Growth inhibition of human MCF10A cells at 5 ug/ml by MTT assay. In kind it is cell-based, MCF-10A. The settings on record: MCF10A cells, read-out: GI.
Data set [4] in a line: Growth inhibition of human MCF10A cells at 10 ug/ml by MTT assay. Format: cell-based, MCF-10A. Conditions: MCF10A cells, read-out: GI.
Data set [5] has as its system MCF7. The data set can be described thus: Growth inhibition of human MCF7 cells at 20 ug/ml by MTT assay. Conditions: read-out: GI. Format: functional.
Data set [6] relates to MCF7. The data set can be described thus: Growth inhibition of human MCF7 cells at 30 ug/ml by MTT assay. Conditions: read-out: GI. In kind it is functional.
In data set [7] the test system is MCF7. Description: Growth inhibition of human MCF7 cells at 10 ug/ml by MTT assay. In kind it is functional. Conditions: read-out: GI.
Data set [8] has as its system COLO 205. The data set can be described thus: Growth inhibition of human COLO205 cells at 30 ug/ml by MTT assay. In kind it is functional. Conditions: read-out: GI.
In data set [9] the test system is MCF7. Description: Growth inhibition of human MCF7 cells at 5 ug/ml by MTT assay. Format: functional. Conditions: read-out: GI.
Data set [10] relates to COLO 205. Description: Growth inhibition of human COLO205 cells at 10 ug/ml by MTT assay. In kind it is functional. Conditions: read-out: GI.
Data set [11] concerns COLO 205. The data set can be described thus: Growth inhibition of human COLO205 cells at 20 ug/ml by MTT assay. In kind it is functional. Conditions: read-out: GI.
For data set [12], the system named is COLO 205. The data set can be described thus: Growth inhibition of human COLO205 cells at 5 ug/ml by MTT assay. In kind it is functional. Conditions: read-out: GI.
In data set [13] the test system is HepG2. Description: Growth inhibition of human HepG2 cells at 20 ug/ml by MTT assay. In kind it is functional. The settings on record: read-out: GI.
Data set [14] concerns HepG2. The data set can be described thus: Growth inhibition of human HepG2 cells at 30 ug/ml by MTT assay. Format: functional. The settings on record: read-out: GI.
Data set [15] concerns HepG2. Description: Growth inhibition of human HepG2 cells at 5 ug/ml by MTT assay. In kind it is functional. Conditions: read-out: GI.
For data set [16], the system named is HepG2. Description: Growth inhibition of human HepG2 cells at 10 ug/ml by MTT assay. Format: functional. The settings on record: read-out: GI.
Data set [17] concerns MCF7. The data set can be described thus: Growth inhibition of human MCF7 cells by MTT assay. Format: functional, cell-based.
In data set [18] the test system is COLO 205. Description: Growth inhibition of human COLO205 cells by MTT assay. Format: functional, cell-based.
For data set [19], the system named is HepG2. The data set can be described thus: Growth inhibition of human HepG2 cells by MTT assay. Format: functional, cell-based.

For the compound `O=c1cc(-c2ccccc2)oc2cc(O)cc(O)c12` [CHRYSIN], the inhibition at 30 ug/ml in data set [1] is 29.6%. The inhibition at 20 ug/ml in [2] is 21.4%. Also, in data set [3], the inhibition at 5 ug/ml stood at 5.92%. Besides, in data set [4], the inhibition at 10 ug/ml is 14.5%. Further, the values for the inhibition of growth at 20 µg/mL with MCF7 [5], with COLO 205 [11] and in the data set with HepG2 [13] were 86.5%, 56.5% and 55.3%, respectively. Also, the inhibition of growth at 30 µg/mL with MCF7 [6] came to 97%; in the data set with COLO 205 [8] it was 65.2%; in the data set with HepG2 [14], 65.1%. Further, the values for the inhibition of growth at 10 µg/mL in the data set on MCF7 [7], in the data set on COLO 205 [10] and in the data set with HepG2 [16] were 45.2%, 24.9% and 29.2%, respectively. In addition, the results for the inhibition of growth at 5 µg/mL in the data set on MCF7 [9], with COLO 205 [12] and in the data set on HepG2 [15] were 14.6%, 15.2% and 14.8%, respectively. The “growth inhibition (GI)” value with MCF7 [17], in the data set on COLO 205 [18] and with HepG2 [19] was “Dose-dependent effect” each time.
